*1 amine or outer side, *2 acyl side, *3 side chain or, on linkers, in order; H or OH if unused. Where a SMILES comes first, the peptide text is derived from it. Side-chain parts run from the residue outwards. [ ]: non-standard residue; d: D form. The star is where a group is joined. C20 diacid = O=C(O)CCCCCCCCCCCCCCCCCCC(=O)*; αMePhe(2-F) = C[C@](N)(Cc1ccccc1F)C(=O)O; γGlu = O=C(O)[C@H](CCC(=O)[*:2])N[*:1]; αMeL = CC(C)C[C@](C)(N)C(=O)O; AEEA = NCCOCCOCC(=O)O; Aib = CC(C)(N)C(=O)O
Assays:
[1] = target: T1, human GLP-1R (Homo sapiens, UniProt P43220); test: [125I]-GLP-1 binding, SPA with WGA beads, 0.1% bacitracin; conditions: geometric mean, read-out: hGLP1R Ki
T1 construct: expressed in transfected cells; crude membranes
T1 sequence (P43220 24-463): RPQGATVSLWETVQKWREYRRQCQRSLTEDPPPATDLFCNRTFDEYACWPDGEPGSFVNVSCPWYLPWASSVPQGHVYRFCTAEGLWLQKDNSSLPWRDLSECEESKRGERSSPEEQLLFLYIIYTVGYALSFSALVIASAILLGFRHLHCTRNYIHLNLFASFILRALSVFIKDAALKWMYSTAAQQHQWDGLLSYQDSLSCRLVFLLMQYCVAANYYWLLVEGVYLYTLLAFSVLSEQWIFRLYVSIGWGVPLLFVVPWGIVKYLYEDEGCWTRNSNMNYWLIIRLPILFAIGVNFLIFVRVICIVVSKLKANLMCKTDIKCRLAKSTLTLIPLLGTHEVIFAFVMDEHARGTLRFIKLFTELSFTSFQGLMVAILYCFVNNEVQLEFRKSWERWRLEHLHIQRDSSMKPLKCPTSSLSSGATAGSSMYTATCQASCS
How it was run: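 Binding buffer was 25 mM HEPES pH 7.4 with 2.5 mM CaCl2, 1 mM MgCl2, 0.1% (w/v) bacitracin, 0.003% Tween-20 and EDTA-free protease inhibitors. Four-parameter regression gave IC50, converted to Ki (geometric mean, SEM, n independent days).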

[2] = target: T2, human GcgR (Homo sapiens, UniProt P47871); test: [125I]-Glucagon binding, SPA with WGA beads, 0.1% bacitracin; conditions: geometric mean, read-out: hGcgR Ki
T2 construct: expressed in transfected cells; crude membranes
T2 sequence (P47871 26-477): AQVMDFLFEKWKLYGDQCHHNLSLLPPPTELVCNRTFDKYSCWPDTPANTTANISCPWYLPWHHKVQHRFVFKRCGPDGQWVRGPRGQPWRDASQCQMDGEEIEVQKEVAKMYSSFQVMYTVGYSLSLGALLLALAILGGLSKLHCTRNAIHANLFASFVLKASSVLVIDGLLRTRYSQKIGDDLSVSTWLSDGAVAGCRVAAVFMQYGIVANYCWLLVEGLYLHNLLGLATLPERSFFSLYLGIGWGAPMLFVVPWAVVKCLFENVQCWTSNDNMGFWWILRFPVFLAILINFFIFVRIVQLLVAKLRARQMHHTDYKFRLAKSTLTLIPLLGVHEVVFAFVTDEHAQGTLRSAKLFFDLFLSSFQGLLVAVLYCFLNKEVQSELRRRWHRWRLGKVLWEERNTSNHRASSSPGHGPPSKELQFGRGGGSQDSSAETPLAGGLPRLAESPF
Procedure: Stably transfected cell lines are prepared by subcloning receptor cDNA into a pcDNA3 expression plasmid and transfected into human embryonic kidney (HEK) 293 (hGcgR and hGLP-1R) or Chinese Hamster Ovary (CHO) (hGIPR) cells followed by selection with Geneticin (hGLP-1R and hGIPR) or hygromycin B (hGcgR).
Two methods are used for the preparation of crude cell membranes.
Method 1: Frozen cell pellets are lysed on ice in hypotonic buffer containing 50 mM Tris HCl, pH 7.5, and Roche Complete™ Protease Inhibitors with EDTA. The cell suspension is disrupted using a glass Potter-Elvehjem homogenizer fitted with a Teflon® pestle for 25 strokes. The homogenate is centrifuged at 4° C. at 1100× g for 10 minutes. The supernatant is collected and stored on ice while the pellets are resuspended in homogenization buffer and rehomogenized as described above. The homogenate is centrifuged at 1100× g for 10 minutes. The second supernatant is combined with the first supernatant and centrifuged at 35000× g for 1 hour at 4° C. The resulting membrane pellet is resuspended in homogenization buffer containing protease inhibitors at approximately 1 to 3 mg/mL, quick frozen in liquid nitrogen and stored as aliquots in a −80° C. freezer until use.
Method 2: Frozen cell pellets are lysed on ice in hypotonic buffer containing 50 mM Tris HCl, pH 7.5, 1 mM MgCl2, Roche Complete™ EDTA-free Protease Inhibitors and 25 units/mL DNAse I (Invitrogen). The cell suspension is disrupted using a glass Potter-Elvehjem homogenizer fitted with a Teflon® pestle for 20 to 25 strokes. The homogenate is centrifuged at 4° C. at 1800× g for 15 minutes. The supernatant is collected and stored on ice while the pellets are resuspended in homogenization buffer (without DNAse I) and rehomogenized as described above. The homogenate is centrifuged at 1800× g for 15 minutes. The second supernatant is combined with the first supernatant and centrifuged an additional time at 1800× g for 15 minutes. The overall supernatant is then centrifuged at 25000× g for 30 minutes at 4° C. The resulting membrane pellet is resuspended in homogenization buffer (without DNAse I) containing protease inhibitors at approximately 1 to 3 mg/mL and stored as aliquots in a −80° C. freezer until use.
The human Geg receptor binding assays are performed using a Scintillation Proximity Assay (SPA) format with wheat germ agglutinin (WGA) beads (Perkin Elmer). The binding buffer contains 25 mM 4-(2-hydroxyethyl)-1-piperazineethanesulfonic acid (HEPES), pH 7.4, 2.5 mM CaCl2), 1 mM MgCl2, 0.1% (w/v) bacitracin (Research Products), 0.003% (w/v) Polyoxyethylenesorbitan monolaurate (TWEEN®-20), and Roche Complete™ Protease Inhibitors without EDTA. Peptides and Gcg are thawed and 3-fold serially diluted in 100% DMSO (10 point concentration response curves). Next, 5 μL serially diluted compound or DMSO is transferred into Corning® 3632 clear bottom assay plates containing 45 μL assay binding buffer or unlabeled Gcg control (non-specific binding or NSB, at 1 μM final). […] Plates are sealed and mixed on a plate shaker (setting 6) for 1 minute and read with a PerkinElmer Trilux MicroBeta® scintillation counter after 12 hours of incubation/settling time at room temperature.
Data are analyzed using four-parameter (curve maximum, curve minimum, IC50, Hill slope) nonlinear regression routines (Genedata Screener, version 12.0.4, Genedata AG, Basal, Switzerland). […] Values for Ki are reported as the geometric mean, with error expressed as the standard error of the mean (SEM) and n is equal to the number of independent replicates (determined in assays performed on different days). […] SEM is only calculated when […] or greater. Means are expressed as geometric means with the standard error of the mean (SEM) and the number of replicates (n) indicated in parentheses.

[3] = target: T3, human GIPR (Homo sapiens, UniProt P48546); test: [125I]-GIP binding, SPA with WGA beads, 0.1% bacitracin; conditions: geometric mean, read-out: hGIPR Ki
T3 construct: expressed in transfected cells; crude membranes
T3 sequence (P48546 22-466): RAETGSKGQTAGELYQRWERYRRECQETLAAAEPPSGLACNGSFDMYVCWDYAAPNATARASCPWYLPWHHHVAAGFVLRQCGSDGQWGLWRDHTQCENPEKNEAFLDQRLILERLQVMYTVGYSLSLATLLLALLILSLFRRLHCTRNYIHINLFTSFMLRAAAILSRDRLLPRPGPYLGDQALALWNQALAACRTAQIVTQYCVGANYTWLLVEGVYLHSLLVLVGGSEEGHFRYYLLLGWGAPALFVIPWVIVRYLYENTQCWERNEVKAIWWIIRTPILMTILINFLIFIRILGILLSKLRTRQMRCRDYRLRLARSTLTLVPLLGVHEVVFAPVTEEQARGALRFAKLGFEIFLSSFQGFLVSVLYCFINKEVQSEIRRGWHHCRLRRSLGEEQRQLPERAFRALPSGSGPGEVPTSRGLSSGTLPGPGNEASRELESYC
How it was run: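 Ki values are geometric means (SEM, n independent days), derived from four-parameter nonlinear regression of IC50. Membranes came from hGIPR-expressing CHO cells.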

SMILES	Ki [1]	Ki [2]	Ki [3]
CC[C@H](C)[C@H](NC(=O)[C@H](CC(C)C)NC(=O)[C@@H](NC(=O)CNC(=O)[C@H](CCC(=O)O)NC(=O)C(C)(C)NC(=O)[C@@H](N)Cc1ccc(O)cc1)[C@@H](C)O)C(=O)N[C@@H](CO)C(=O)N[C@@H](CC(=O)O)C(=O)N[C@@H](Cc1ccc(O)cc1)C(=O)N[C@@H](CO)C(=O)N[C@H](C(=O)N[C@@](C)(CC(C)C)C(=O)N[C@@H](CC(C)C)C(=O)N[C@@H](CC(=O)O)C(=O)N[C@@H](CCCCN)C(=O)N[C@@H](CCCCNC(=O)COCCOCCNC(=O)COCCOCCNC(=O)CC[C@H](NC(=O)CCCCCCCCCCCCCCCCCCC(=O)O)C(=O)O)C(=O)N[C@@H](Cc1c[nH]cn1)C(=O)N[C@@H](CCC(N)=O)C(=O)NC(C)(C)C(=O)N[C@@H](CCC(=O)O)C(=O)N[C@@H](Cc1ccccc1)C(=O)N[C@H](C(=O)N[C@@H](CCC(=O)O)C(=O)N[C@@H](Cc1ccc(O)cc1)C(=O)N[C@@H](CC(C)C)C(=O)N[C@@H](CC(C)C)C(=O)N[C@@H](CCC(=O)O)C(=O)NCC(=O)NCC(=O)N1CCC[C@H]1C(=O)N[C@@H](CO)C(=O)N[C@@H](CO)C(=O)NCC(=O)N[C@@H](C)C(=O)N1CCC[C@H]1C(=O)N1CCC[C@H]1C(=O)N1CCC[C@H]1C(=O)N[C@@H](CO)C(N)=O)C(C)C)[C@@H](C)CC [Example 73] (H-Y[Aib]EGTLISDYSI[αMeL]LDKK([AEEA-AEEA-γGlu-C20 diacid])HQ[Aib]EFVEYLLEGGPSSGAPPPS-NH2)	117 nM	292 nM	0.036 nM
CC[C@H](C)[C@H](NC(=O)[C@H](CCCCN)NC(=O)[C@H](CC(=O)O)NC(=O)[C@H](CC(C)C)NC(=O)[C@](C)(CC(C)C)NC(=O)[C@@H](NC(=O)[C@H](CO)NC(=O)[C@H](Cc1ccc(O)cc1)NC(=O)[C@H](CC(=O)O)NC(=O)[C@H](CO)NC(=O)[C@@H](NC(=O)[C@H](Cc1ccccc1)NC(=O)[C@@H](NC(=O)CNC(=O)[C@H](CCC(=O)O)NC(=O)C(C)(C)NC(=O)[C@@H](N)Cc1ccc(O)cc1)[C@@H](C)O)[C@@H](C)CC)[C@@H](C)CC)C(=O)N[C@@H](CCCNC(=N)N)C(=O)N[C@@H](CCC(N)=O)C(=O)NC(C)(C)C(=O)N[C@@H](CC(=O)O)C(=O)N[C@@H](Cc1ccccc1)C(=O)N[C@H](C(=O)N[C@@H](CCC(=O)O)C(=O)N[C@@H](Cc1ccc(O)cc1)C(=O)N[C@@H](CCCCNC(=O)COCCOCCNC(=O)COCCOCCNC(=O)CC[C@H](NC(=O)CCCCCCCCCCCCCCCCCCC(=O)O)C(=O)O)C(=O)N[C@@H](CC(C)C)C(=O)N[C@@H](CCC(=O)O)C(=O)NCC(=O)NCC(=O)N1CCC[C@H]1C(=O)N[C@@H](CO)C(=O)N[C@@H](CO)C(=O)NCC(=O)N[C@@H](C)C(=O)N1CCC[C@H]1C(=O)N1CCC[C@H]1C(=O)N1CCC[C@H]1C(=O)N[C@@H](CO)C(N)=O)C(C)C [Example 115] (H-Y[Aib]EGTFISDYSI[αMeL]LDKIRQ[Aib]DFVEYK([AEEA-AEEA-γGlu-C20 diacid])LEGGPSSGAPPPS-NH2)	> 912 nM	373 nM	0.0997 nM
CC[C@H](C)[C@H](NC(=O)[C@H](CO)NC(=O)[C@H](Cc1ccc(O)cc1)NC(=O)[C@H](CC(=O)O)NC(=O)[C@H](CO)NC(=O)[C@@H](NC(=O)[C@](C)(Cc1ccccc1F)NC(=O)[C@@H](NC(=O)CNC(=O)[C@H](CCC(=O)O)NC(=O)C(C)(C)NC(=O)[C@@H](N)Cc1ccc(O)cc1)[C@@H](C)O)[C@@H](C)CC)C(=O)N[C@@H](C)C(=O)N[C@@H](CC(C)C)C(=O)N[C@@H](CC(=O)O)C(=O)N[C@@H](CCCCN)C(=O)N[C@H](C(=O)N[C@@H](Cc1c[nH]cn1)C(=O)N[C@@H](CCC(N)=O)C(=O)NC(C)(C)C(=O)N[C@@H](CCC(=O)O)C(=O)N[C@@H](Cc1ccccc1)C(=O)N[C@H](C(=O)N[C@@H](CC(N)=O)C(=O)N[C@@H](Cc1ccc(O)cc1)C(=O)N[C@@H](CCCCNC(=O)COCCOCCNC(=O)COCCOCCNC(=O)CC[C@H](NC(=O)CCCCCCCCCCCCCCCCCCC(=O)O)C(=O)O)C(=O)N[C@@H](CC(C)C)C(=O)N[C@@H](C)C(=O)NCC(=O)NCC(=O)N1CCC[C@H]1C(=O)N[C@@H](CO)C(=O)N[C@@H](CO)C(=O)NCC(=O)N[C@@H](C)C(=O)N1CCC[C@H]1C(=O)N1CCC[C@H]1C(=O)N1CCC[C@H]1C(=O)N[C@@H](CO)C(N)=O)C(C)C)[C@@H](C)CC [Example 98] (H-Y[Aib]EGT[αMePhe(2-F)]ISDYSIALDKIHQ[Aib]EFVNYK([AEEA-AEEA-γGlu-C20 diacid])LAGGPSSGAPPPS-NH2)	311 nM	38.4 nM	0.0195 nM
CC[C@H](C)[C@H](NC(=O)[C@H](CO)NC(=O)[C@H](Cc1ccc(O)cc1)NC(=O)[C@H](CC(=O)O)NC(=O)[C@H](CO)NC(=O)[C@@H](NC(=O)[C@H](Cc1ccccc1)NC(=O)[C@@H](NC(=O)CNC(=O)[C@H](CCC(=O)O)NC(=O)[C@@H](C)NC(=O)[C@@H](N)Cc1ccc(O)cc1)[C@@H](C)O)[C@@H](C)CC)C(=O)N[C@@H](CC(C)C)C(=O)N[C@@H](CC(C)C)C(=O)N[C@@H](CC(=O)O)C(=O)N[C@@H](CCCCN)C(=O)N[C@@H](CCCCNC(=O)COCCOCCNC(=O)COCCOCCNC(=O)CC[C@H](NC(=O)CCCCCCCCCCCCCCCCCCC(=O)O)C(=O)O)C(=O)N[C@@H](Cc1c[nH]cn1)C(=O)N[C@@H](CCC(N)=O)C(=O)N[C@@H](CCC(N)=O)C(=O)N[C@@H](CC(=O)O)C(=O)N[C@@H](Cc1ccccc1)C(=O)N[C@H](C(=O)N[C@@H](CCC(=O)O)C(=O)N[C@@H](Cc1c[nH]c2ccccc12)C(=O)N[C@@H](CC(C)C)C(=O)N[C@@H](CC(C)C)C(=O)N[C@@H](C)C(=O)N[C@@H](CCC(N)=O)C(=O)NCC(=O)N1CCC[C@H]1C(=O)N[C@@H](CO)C(=O)N[C@@H](CO)C(=O)NCC(=O)N[C@@H](C)C(=O)N1CCC[C@H]1C(=O)N1CCC[C@H]1C(=O)N1CCC[C@H]1C(=O)N[C@@H](CO)C(N)=O)C(C)C [Example 14] (H-Y[dA]EGTFISDYSILLDKK([AEEA-AEEA-γGlu-C20 diacid])HQQDFVEWLLAQGPSSGAPPPS-NH2)	> 213 nM	> 230 nM	0.46 nM

— patent publication US12723063B2, “GIPR-agonist compounds” (Eli Lilly and Company, priority 2019, dated 2026)
